Test results taken from paper PMC12190436, “5-Ene-2-arylaminothiazol-4(5H)-ones Induce Apoptosis in Breast Cancer Cells” (Cells, 2025).

Assays:
Type in all cases: cell-based
K-562 = test system: K-562
A549/ATCC = test system: A549/ATCC
NCI-H266 = test system: NCI-H266
HCC -2998 = test system: HCC -2998
LOX IMVI = details: MG_MID_60/value
NCI/ADR-RES = test system: NCI/ADR-RES
Ovarian Cancer = test system: Ovarian Cancer
ACHN = test system: ACHN
DU-145 = test system: DU-145
MDA-MB-231/ATCC = test system: MDA-MB-231/ATCC
Breast Cancer = test system: Breast Cancer
[1] = Homo sapiens, 48 h, read-out: LC50 (the source's name)

For `COc1cc(NC2=NC(=O)C(=Cc3c[nH]c4ccccc34)S2)cc(OC)c1OC` [Les-6418, 5-((1H-Indol-3-yl)methylene)-2-((3,4,5-trimethoxyphenyl)amino)thiazol-4(5H)-one], which GI50 (K-562; Homo sapiens, K562, K-562, 48 h) is on record?
The GI50 was 0.526 µM.

And the CC50 (K-562; Homo sapiens, K562, K-562, 48 h, read-out: LC50 (the source's name))?
Its CC50 is over 100 µM.

What about the TGI (K-562; K-562, 48 h) of the same molecule?
The TGI was 31.1 µM.

And the “SI (TGI)” value (K-562; K-562, MG_MID_60/value)?
Its value is 0.60.

What about the TGI (A549/ATCC; 48 h) of the same molecule?
Its TGI is 16.5 µM.

What about the GI50 (A549/ATCC; Homo sapiens, 48 h) of the same molecule?
The GI50 was 2.84 µM.

And the LC50 (A549/ATCC; Homo sapiens, 48 h)?
Its LC50 is 73.6 µM.

What about the “SI (TGI)” value (A549/ATCC; MG_MID_60/value) of the same molecule?
Its value is 1.13.

And the GI50 (NCI-H266; Homo sapiens, NCI-H266, 48 h)?
Its GI50 is 3.18 µM.

And the CC50 (NCI-H266; Homo sapiens, NCI-H266, 48 h, read-out: LC50 (the source's name))?
The CC50 was 68.8 µM.

And the TGI (NCI-H266; NCI-H266, 48 h)?
Its TGI is 17.4 µM.

And the “SI (TGI)” value (NCI-H266; NCI-H266, MG_MID_60/value)?
The value was 1.07.

What about the TGI (HCC -2998; HCC -2998, 48 h) of the same molecule?
Its TGI is 20.7 µM.

And the “SI (TGI)” value (HCC -2998; HCC -2998, MG_MID_60/value)?
The value was 0.90.

And the GI50 (HCC -2998; Homo sapiens, HCC -2998, 48 h)?
The GI50 was 6.36 µM.

And the CC50 (HCC -2998; Homo sapiens, HCC -2998, 48 h, read-out: LC50 (the source's name))?
Its CC50 is 47.8 µM.

And the “SI (TGI)” value (LOX IMVI)?
Its value is 1.34.

And the TGI (NCI/ADR-RES; 48 h)?
Its TGI is 24.2 µM.

What about the GI50 (NCI/ADR-RES; Homo sapiens, 48 h) of the same molecule?
Its GI50 is 6.24 µM.

And the CC50 (NCI/ADR-RES; [1])?
Its CC50 is 74.2 µM.

What about the “SI (TGI)” value (NCI/ADR-RES; MG_MID_60/value) of the same molecule?
Its value is 0.77.

What about the GI50 (Ovarian Cancer; Homo sapiens, Ovarian Cancer subpanel mean, read-out: MG_MID GI50) of the same molecule?
The GI50 was 4.61 µM.

What about the CC50 (Ovarian Cancer; Homo sapiens, Ovarian Cancer subpanel mean, read-out: MG_MID LC50) of the same molecule?
Its CC50 is 50.5 µM.

What about the “MG_MID TGI” value (Ovarian Cancer; Ovarian Cancer subpanel mean) of the same molecule?
The value was 16.7 µM.

What about the “SI (MG_MID TGI)” value (Ovarian Cancer; Ovarian Cancer subpanel, MG_MID_60/value) of the same molecule?
Its value is 1.11.

What about the TGI (ACHN; 48 h) of the same molecule?
Its TGI is 12.0 µM.

And the GI50 (ACHN; Homo sapiens, 48 h)?
Its GI50 is 3.2 µM.

And the CC50 (ACHN; [1])?
Its CC50 is 36.1 µM.

What about the “SI (TGI)” value (ACHN; MG_MID_60/value) of the same molecule?
The value was 1.55.

What about the TGI (DU-145; DU-145, 48 h) of the same molecule?
The TGI was 17.2 µM.

And the “SI (TGI)” value (DU-145; DU-145, MG_MID_60/value)?
The value was 1.08.

And the GI50 (DU-145; Homo sapiens, DU-145, 48 h)?
The GI50 was 4.63 µM.

And the CC50 (DU-145; Homo sapiens, DU-145, 48 h, read-out: LC50 (the source's name))?
The CC50 was 47.4 µM.

And the TGI (MDA-MB-231/ATCC; 48 h)?
Its TGI is 18.8 µM.

What about the GI50 (MDA-MB-231/ATCC; Homo sapiens, 48 h) of the same molecule?
The GI50 was 4.77 µM.

What about the CC50 (MDA-MB-231/ATCC; [1]) of the same molecule?
The CC50 was 55.2 µM.

And the “SI (TGI)” value (MDA-MB-231/ATCC; MG_MID_60/value)?
Its value is 0.99.

And the “MG_MID TGI” value (Breast Cancer; Breast Cancer subpanel mean)?
Its value is 13.2 µM.

What about the “SI (MG_MID TGI)” value (Breast Cancer; Breast Cancer subpanel, MG_MID_60/value) of the same molecule?
Its value is 1.41.

And the GI50 (Breast Cancer; Homo sapiens, Breast Cancer subpanel mean, read-out: MG_MID GI50)?
Its GI50 is 2.32 µM.

What about the CC50 (Breast Cancer; Homo sapiens, Breast Cancer subpanel mean, read-out: MG_MID LC50) of the same molecule?
The CC50 was 55.8 µM.
